# Experimental data taken from publication PMC11413854, “Reversible Control of Native GluN2B-Containing NMDA Receptors with Visible Light” (ACS Chemical Neuroscience, 2024).
# Like-named read-outs stand apart in the source and are kept apart here.
# Assays:
# [1] = Thermal stability of the PSS in the dark and fatigability over illumination cycles; assay type: physicochemical; conditions: for A(320 nm): Sup. Fig. 1C; for A(371 nm): Sup. Fig. 1G; for A(334 nm): Sup. Fig. 1K
# From the text: , we focused on the three key properties allowing the use of azobenzenes in biological systems: (i) wavelengths for trans-to-cis and cis-to-trans conversions; (ii) compound thermalstability, i.e., half-life of the cis isomer in the dark; and (iii) fatigability, i.e., the number of illumination cycles that the molecule can undergo without degradation. To this aim, […] recording solution (Ringer pH 7.3; see Methods) either in the dark (absence of illumination) or after illumination by light wavelengths ranging from 350 to 580 nm (Figures 2B and S1M). In the dark (black curve in Figure 2B), the spectrum was characteristic of a trans isomer.[32] Application of UV light at a wavelength close to the main absorption peak of the trans form (365 or 350 nm) gave a completely different spectrum (violet curves in Figure 2B), characteristic of azobenzenes in their cis configuration.[32] […] states (PSS) containing 100% trans in the dark, 82% cis and 18% residual trans after illumination at 365 nm (365 nm PSS, violet curve in Figure 2C), and 91% cis and 9% residual trans after illumination at 350 nm (350 nm PSS, lavender curve in Figure 2C). […] from 435 to 550 nm gave equivalent cis-to-trans conversions with 435 and 550 nm yielding slightly stronger conversions (∼70% trans after illumination at 435 and 550 nm calculated from UV–visible spectra at λtrans = 329 nm, Figures 2B and S1N; 550 nm PSS of 69% trans and 31% cis measured by HPLC, Figure 2C, green trace). 550 nm was chosen as the optimal wavelength since green light is less harmful for cells than lights of shorter wavelengths. We then tested the thermal stability of the cis form in the dark (in the absence of illumination). […]
# Thermal stability of the cis state (365 nm PSS) was measured by irradiating the solution with 365 nm light during 10 min, then letting it relax in the dark, at room temperature (20–22 °C), inside the spectrophotometer. Spectra were acquired at regular intervals, up to 1 day, after irradiation.
# [2] = target: GluN1/GluN2B-ΔNTD receptors (Rattus norvegicus (GluN1); Mus musculus (GluN2B), UniProt P35439+Q01097); test: TEVC on Xenopus oocytes, GluN2B NTD-deleted receptors; assay type: cell-based; conditions: for Relative current (IOpto/I0): GluN1/GluN2B-DeltaNTD
# From the text: We finally investigated the location of the OptoNAM-3 binding-site on the receptor. […] The binding site for GluN2B-selective antagonists at the GluN1/GluN2B NTD dimer interface contains two partially overlapping pockets that accommodate GluN2B-selective NAMs of distinct chemical scaffolds:[19] either scaffolds related to ifenprodil or scaffolds related to another GluN2B-selective NAM called EVT-101.[47]
# We used cDNA coding for rat GluN1–1a (named GluN1 herein) (GenBank: U08261.1), rat GluN2A (GenBank: D13211.1), mouse GluN2B (GenBank: D10651.2), rat GluA1 flop (GenBank: M36418.2), and rat Myc-GluA2(Q)-flip (GenBank: AF164344.1) cloned into pcDNA3-based expression plasmids. GluK2 (GenBank: Z11548.1) corresponds to the fully RNA-edited version.[80] The GluN2B-ΔNTD construct is from ref[45] and GluN2B–N615K is from ref[81]. Single mutants GluN2B-Q110G and GluN1-L135H were from ref[19]. The GluA2 cDNA contains a Myc tag ([…]) fused between the signal peptide and the N-terminus sequences, and the GluA2 subunit is […] for its Q/R/N site (GluA2(Q)) to allow permeation of homomeric GluA2 receptors.[2] cDNAs coding for rat GluN2C (GenBank: M91563.1) and GluN2D subunits (GenBank: L31611.1) were in prK5 plasmids.
# Expression of recombinant NMDA receptors was obtained by oocyte nuclear coinjection of 37 nL of a mixture of cDNAs (at 30 ng/μL) coding for GluN1–1a and various GluN2 subunits (ratio 1:1). The protocol in ref[43] was followed for the expression of GluN1/GluN2A/GluN2B triheteromers. The oocytes were transferred in 96-well plates filled with Barth solution (in mM: 88 NaCl, 1 KCl, 0.33 Ca(NO3)2, 0.41 CaCl2, 0.82 MgSO4, 2.4 NaHCO3, and 7.5 HEPES, pH adjusted to 7.3 with NaOH), supplemented with gentamicin ([…]) and 50 μM APV, a selective NMDA receptor antagonist. Plates were then stored at 18 °C for 24 h for GluN1/GluN2A expression and for 48––72 h for the expression of GluN1/Glu2B, GluN1/GluN2A/GluN2B, and mutants.
# TEVC recordings were performed 1–3 days following injection. TEVC recordings were performed using an Oocyte Clamp amplifier OC-725 (Warner Instruments) and computer-controlled via a 1440A Digidata (Molecular Devices). Currents were sampled at 100 Hz and low-pass-filtered at 20 Hz using an 8-pole Bessel filter (900 Series, Frequency Devices Inc.). Data were collected with Clampfit 10.3. During the recording, the cells were continuously perfused with external recording Ringer solution at pH 7.3 (in mM: 100 NaCl, 0.3 BaCl2, 5 HEPES, and 2.5 KCl, pH adjustment to 7.3 by the addition of NaOH). The NMDA currents were induced by simultaneous application of L-glutamate and glycine (agonist solution) at saturating concentration (100 μM each), and DTPA (10 μM) to prevent receptor inhibition by ambient zinc (∼20 nM).[83] A control solution (100 μM glycine and 10 μM DTPA in Ringer pH 7.3) was used for washout of drug and test solutions. AMPA and kainate receptor currents were induced in the same conditions as NMDA currents (100 μM glutamate and glycine + 10 μM DTPA). Oocytes expressing GluK2 kainate receptors were treated with concanavalin A ([…], equivalent to 1.1 mg/mL) during 10 min before recording to decrease receptor desensitization. Unless notified, recordings were performed at a holding potential of −60 mV. All experiments were performed at room temperature.
# OptoNAMs were diluted as stock solutions of 50 to 0.5 mM in DMSO. On the day of the experiment, they were diluted to the appropriate concentration in the recording solution and kept in the dark during the whole duration of the experiment to avoid photoconversion.
# [3] = Ringer pH 7.3, room temperature
# GluN1/GluN2B-ΔNTD receptors, sequence (Q01097 395-1482, stated change not applied, other chains not shown): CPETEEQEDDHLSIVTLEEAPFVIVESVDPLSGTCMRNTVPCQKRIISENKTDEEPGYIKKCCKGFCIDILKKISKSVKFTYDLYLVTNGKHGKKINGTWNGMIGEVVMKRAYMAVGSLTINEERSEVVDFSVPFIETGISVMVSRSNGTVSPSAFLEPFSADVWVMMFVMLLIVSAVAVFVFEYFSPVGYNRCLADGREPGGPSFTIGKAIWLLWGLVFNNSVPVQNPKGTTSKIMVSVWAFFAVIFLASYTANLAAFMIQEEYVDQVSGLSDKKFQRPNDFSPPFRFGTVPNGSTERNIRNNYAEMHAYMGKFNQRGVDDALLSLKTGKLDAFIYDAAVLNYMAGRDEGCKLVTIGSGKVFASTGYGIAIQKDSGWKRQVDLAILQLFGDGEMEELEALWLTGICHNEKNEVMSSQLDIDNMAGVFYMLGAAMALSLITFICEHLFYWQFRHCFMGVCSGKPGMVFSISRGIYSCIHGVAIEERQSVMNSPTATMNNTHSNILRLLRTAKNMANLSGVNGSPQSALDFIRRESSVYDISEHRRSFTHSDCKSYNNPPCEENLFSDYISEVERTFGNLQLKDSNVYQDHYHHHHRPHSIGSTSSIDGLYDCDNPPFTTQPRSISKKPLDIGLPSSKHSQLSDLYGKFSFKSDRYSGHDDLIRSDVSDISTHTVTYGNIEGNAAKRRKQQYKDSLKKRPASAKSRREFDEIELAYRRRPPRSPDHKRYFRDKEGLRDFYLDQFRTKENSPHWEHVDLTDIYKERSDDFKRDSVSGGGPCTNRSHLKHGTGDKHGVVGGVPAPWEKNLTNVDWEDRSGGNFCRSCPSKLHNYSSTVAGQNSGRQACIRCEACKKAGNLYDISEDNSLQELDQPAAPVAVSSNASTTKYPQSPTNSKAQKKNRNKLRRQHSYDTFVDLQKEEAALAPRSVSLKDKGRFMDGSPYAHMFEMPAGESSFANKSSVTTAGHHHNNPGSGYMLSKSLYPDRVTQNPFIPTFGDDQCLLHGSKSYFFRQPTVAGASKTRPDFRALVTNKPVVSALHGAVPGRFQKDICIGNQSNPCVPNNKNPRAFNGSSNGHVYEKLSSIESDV
smiles,measurement,setting,value
"Nc1ccnc(/N=N/c2ccccc2)c1 [OptoNAM-1, (E)-2-(phenyldiazenyl)pyridin-4-amine]",thermal stability of the 365 nm PSS (mostly cis) in the dark: time without change of spectra,[1]; [3],≥ 60 min
same,A(320 nm),[1]; 365 nm (t=0),0.092
same,A(320 nm),[1]; 365 nm (t=2 min),0.093
same,A(320 nm),[1]; 365 nm (t=5min),0.093
same,A(320 nm),[1]; 365 nm (t=10 min),0.093
same,A(320 nm),[1]; 365 nm (t=20min),0.093
same,A(320 nm),[1]; 365 nm (t=40min),0.094
same,A(320 nm),[1]; 365 nm (t=60min),0.094
same,A(320 nm),[1]; dark,0.207
"Cc1cc(N)nc(/N=N/c2ccccc2)c1 [OptoNAM-2, (E)-4-methyl-6-(phenyldiazenyl)pyridin-2-amine]",thermal stability of the 365 nm PSS (mostly cis) in the dark: time without change of spectra,[1]; [3],≥ 60 min
same,A(371 nm),[1]; 365 nm (t=0),0.257
same,A(371 nm),[1]; 365 nm (t=1 min),0.255
same,A(371 nm),[1]; 365 nm (t=5min),0.256
same,A(371 nm),[1]; 365 nm (t=10 min),0.255
same,A(371 nm),[1]; 365 nm (t=20 min),0.257
same,A(371 nm),[1]; 365 nm (t=40min),0.258
same,A(371 nm),[1]; 365 nm (t=60min),0.260
"c1ccc(/N=N/c2ccc(CCNc3ccncc3)cc2)cc1 [OptoNAM-3, (E)-N-(4-(Phenyldiazenyl)phenethyl)pyridin-4-amine]",inhibition of GluN1/GluN2B-DeltaNTD,"[2]; 1 µM trans-OptoNAM-3 (dark), calculated from the dose-response curve",2.150%
same,IC50,"[2]; 365 nm PSS, read-out: IC50 on GluN1/GluN2B-ΔNTD receptors pre-illuminated with 365 nm",25 ± 6 µM
same,Relative current (IOpto/I0),"[2]; OptoNAM-3 365 nm PSS, [OptoNAM-3] 0.3 µM",0.952
same,Relative current (IOpto/I0),"[2]; OptoNAM-3 365 nm PSS, [OptoNAM-3] 2 µM",0.900
same,Relative current (IOpto/I0),"[2]; OptoNAM-3 365 nm PSS, [OptoNAM-3] 5 µM",0.779
same,Relative current (IOpto/I0),"[2]; OptoNAM-3 365 nm PSS, [OptoNAM-3] 20 µM",0.661
same,Relative current (IOpto/I0),"[2]; OptoNAM-3 365 nm PSS, [OptoNAM-3] 30 µM",0.421
same,Relative current (IOpto/I0),"[2]; OptoNAM-3 365 nm PSS, [OptoNAM-3] 67 µM",0.119
same,Relative current (IOpto/I0),"[2]; OptoNAM-3 dark PSS (trans), [OptoNAM-3] 0.3 µM",0.969
same,Relative current (IOpto/I0),"[2]; OptoNAM-3 dark PSS (trans), [OptoNAM-3] 2 µM",0.866
same,Relative current (IOpto/I0),"[2]; OptoNAM-3 dark PSS (trans), [OptoNAM-3] 5 µM",0.809
same,Relative current (IOpto/I0),"[2]; OptoNAM-3 dark PSS (trans), [OptoNAM-3] 20 µM",0.542
same,Relative current (IOpto/I0),"[2]; OptoNAM-3 dark PSS (trans), [OptoNAM-3] 30 µM",0.365
same,Relative current (IOpto/I0),"[2]; OptoNAM-3 dark PSS (trans), [OptoNAM-3] 67 µM",0.033
same,shift in IC50 between wt and GluN1/GluN2B-ΔNTD receptors,[2]; dark,100 fold
same,IC50,"[2]; dark, read-out: IC50 on GluN1/GluN2B-ΔNTD receptors in the dark",20 ± 4 µM
same,thermal stability of the 550 nm PSS in the dark: time without change of spectrum,[1]; [3],≥ 24 h
same,cycles of UV/green illumination without degradation,[1]; absorbance at 329 nm,≥ 10 cycles
"CS(=O)(=O)Nc1ccc2nc(Cc3ccc(/N=N/c4ccccc4)cc3)[nH]c2c1 [OptoNAM-4, (E)-N-(2-(4-(phenyldiazenyl)benzyl)-1H-benzo[d]imidazol-6-yl)methanesulfonamide]",thermal stability of the 365 nm PSS (mostly cis) in the dark: time without change of spectra,[1]; [3],only little change
same,A(334 nm),[1]; 365 nm (t=0),0.207
same,A(334 nm),[1]; 365 nm (t=5 min),0.200
same,A(334 nm),[1]; 365 nm (t=15 min),0.206
same,A(334 nm),[1]; 365 nm (t=30min),0.211
same,A(334 nm),[1]; 365 nm (t=40 min),0.208
same,A(334 nm),[1]; 365 nm (t=60min),0.242
